Experimental data taken from PMC9649909, “Wnt-pathway inhibitors with selective activity against triple-negative breast cancer: From thienopyrimidine to quinazoline inhibitors” (Frontiers in Pharmacology, 2022).
“Also recorded” adds a separate entry of the source. Like-named read-outs stand apart in the source and are kept apart here.

Assays:
[1] = system: β-catenin-dependent Wnt-pathway; assay: TopFlash luciferase reporter assay, CHIR99021-stimulated, HCC1395; assay type: cell-based; conditions: Homo sapiens, HCC1395, HCC1395, stimulation with CHIR99021 (GSK3β inhibitor); for Emax: read-out: HCC1395 TopFlash Efficacy; for IC50: read-out: HCC1395 TopFlash IC50
[2] = system: β-catenin-dependent Wnt-pathway; assay: TopFlash luciferase reporter assay, Wnt3a-stimulated, HCC1395; assay type: cell-based; conditions: Homo sapiens, stimulation with Wnt3a
From the text: The advantage of our platform lies in its ability to discriminate between inhibitors of the β-catenin-dependent Wnt signaling acting at upstream vs. downstream levels of the pathway, by stimulating the pathway at the different levels either with Wnt3a or with a GSK3β inhibitor, like CHIR99021 ([Shaw et al., 2019b]). Both stimulations abolish formation of the destruction complex, a multiprotein complex consisting of Axin, adenomatous polyposis coli (APC), glycogen synthase kinase three beta (GSK3β), and casein kinase one alpha (CK1α). Upon inactivation of the complex, β-catenin accumulates in the cytoplasm and translocates into the nucleus where it interacts with transcription factors. These downstream events are quantified by a Luciferase transcription-based readout assay (TopFlash assay).

[3] = Cytotoxicity by Renilla luciferase under CMV promoter; conditions: human
HCC1395 cells = assay: as above
BT-20 TNBC cell line = assay: MTT survival assay BT-20; assay type: cell-based; conditions: Homo sapiens, BT-20
HCC1395 TNBC cell line = assay: MTT survival assay HCC1395; assay type: cell-based; conditions: Homo sapiens, HCC1395; Table S2; read-out: MTT HCC-1395 IC50
[4] = system: MDA-MB-231 TNBC cell line; assay: MTT survival assay MDA-MB-231; assay type: cell-based; conditions: Table S2; for IC50: Homo sapiens, MDA-MB-231, read-out: MTT MDA-MB-231 IC50
HCC1806 TNBC cell line = assay: MTT survival assay HCC1806; assay type: cell-based; conditions: Homo sapiens, HCC1806
[5] = system: MDA-MB-468 TNBC cell line; assay: MTT survival assay MDA-MB-468; assay type: cell-based; conditions: Homo sapiens, MDA-MB-468; Table S2
[6] = system: non-cancerous breast epithelial cell line MCF10a; assay: MTT survival assay MCF10a; assay type: cell-based; conditions: for IC50: Homo sapiens, MCF-10A
[7] = system: panel of luciferase reporters with basal activities in HCC1395 cells; assay: Panel of other luciferase transcriptional reporters in HCC1395; assay type: cell-based; conditions: HCC1395, 5 µM
Description: Compound 5d (IC50 = 0.6 µM, Table 2) was used as a representative to analyze the selectivity of the chemotype towards the Wnt-pathway, by profiling it against a panel of different transcriptional reporters with significant basal activities in HCC1395 cells (Figure 5). […] We thus conclude that the anti-proliferative effect of the compound is related exclusively to the suppressed Wnt signaling.

[8] = Table S2, read-out: MTT BT-20 IC50
[9] = Table S2, read-out: MTT HCC1806 IC50
[10] = Table S2, read-out: MTT MCF10 IC50

Row | Compound | Emax [1] | IC50 [1] | IC50 (BT-20 TNBC cell line; [8]) | IC50 (HCC1395 TNBC cell line) | IC50 [4] | IC50 (HCC1806 TNBC cell line; [9]) | IC50 [5] | IC50 [6, 10] | also measured
1 | c1ccc(CNc2ncnc3sccc23)cc1 [Compound 4a, N-benzylthieno[2,3-d]pyrimidin-4-amine] | 72% | 8.47 µM | 16.3 µM | 2520 nM | 19.2 µM | 2.33 µM | 2130 nM | > 10 µM | IC50 [2]: 8.31 µM; IC50 [3]: > 50 µM; Cytotoxicity (Renilla) in words (HCC1395 cells; HCC1395): not toxic; also recorded: no cytotoxic activity; GSK HCC1395 Renilla Comments (HCC1395 cells; Table S2): Non-toxic; MTT MDA-MB-231 plateau [4]: 100; MTT MCF10 Comments ([6]; Table S2): Inactive
2 | CC(Nc1ncnc2sccc12)c1ccc(Cl)cc1 (centres unmarked) [Compound 5d, N-(1-(4-chlorophenyl)ethyl)thieno[2,3-d]pyrimidin-4-amine] | 55.4 ± 24.3% | 0.6 ± 0.33 µM | 6.89 µM | 390 nM | > 10 µM | 9.12 µM | 1670 nM | 6.48 µM | IC50 ([3]; HCC1395 Cytotoxicity IC50): 24 ± 4.98 µM; HCC1395 Cytotoxicity Efficacy (HCC1395 cells; human): 100 ± 0%; IC50 (BT-20 TNBC cell line; Figure 3B heatmap, no activity up to maximal tested concentration, read-out: IC50, μM (BT20)): > 50 µM; MTT MDA-MB-231 Comments [4]: Inactive; IC50 (HCC1806 TNBC cell line; Figure 3B heatmap, read-out: IC50, μM (HCC1806)): > 50 µM; IC50 ([6]; Figure 3B heatmap, read-out: IC50, μM (MCF10)): > 10 µM; inhibition of other signaling pathway reporters [7]: none other signaling pathways are affected; also recorded: no inhibition
